Measurements as given in patent publication US7714146B2, “Azulene-oxindole compounds as multiple-kinase inhibitors and useful as anticancer agents” (Industrial Technology Research Institute, priority 2006, dated 2010).

Legend:
Assay type in all cases: biochemical
[1] = biological target: T1, human VEGFR-2 (Val789-Val1356) (Homo sapiens, UniProt P35968); assay: KDR kinase assay (HTScan VEGFR-2 kit, DELFIA); conditions: for inhibition at 0.1 µM: compound at 0.1 μM, read-out: KDR 0.1 μM, % of inhibition relative to control; for inhibition at 1 µM: compound at 1 μM, read-out: KDR 1 μM, % of inhibition relative to control
T1 construct: human VEGFR-2 (Val789-Val1356); GST (N); purchased Cell Signaling Technology; host or cells: baculovirus expression system
T1 sequence (P35968 789-1356): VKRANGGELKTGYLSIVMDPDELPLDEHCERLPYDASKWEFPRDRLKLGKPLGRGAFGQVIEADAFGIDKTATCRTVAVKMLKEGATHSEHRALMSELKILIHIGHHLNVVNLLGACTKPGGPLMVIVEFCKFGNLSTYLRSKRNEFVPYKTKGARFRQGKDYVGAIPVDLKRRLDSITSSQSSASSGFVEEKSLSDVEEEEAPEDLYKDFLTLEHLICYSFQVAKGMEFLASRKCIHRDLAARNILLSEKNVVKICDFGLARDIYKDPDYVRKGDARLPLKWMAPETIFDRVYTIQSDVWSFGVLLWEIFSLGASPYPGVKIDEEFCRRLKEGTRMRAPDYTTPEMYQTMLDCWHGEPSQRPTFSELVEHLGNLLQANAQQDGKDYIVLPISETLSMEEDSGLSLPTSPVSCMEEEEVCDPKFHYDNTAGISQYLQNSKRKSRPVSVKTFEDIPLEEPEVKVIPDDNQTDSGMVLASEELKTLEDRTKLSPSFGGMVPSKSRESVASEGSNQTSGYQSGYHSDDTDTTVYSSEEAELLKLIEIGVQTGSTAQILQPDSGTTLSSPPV
Procedure: (§1) Compounds 1-100 were treated for their efficacy in inhibiting activities of FLT-3, c-KIT, KDR/Flk-1, PDGFR-beta, EGFR, and PKC kinases by biochemical DELFIA (Dissociation Enhanced Lanthanide FIA) assays according to the procedure described below. The assays were conducted by, Division of Cell Engineering, Biomedical Engineering Research Laboratories, Industrial Technology Research Institute, Bldg. 53, 195, sec. 4, Chung Hsing Rd. Chutung, Hsinchu, Taiwan 310, R.O.C.
(§2) The KDR assay was conducted following the protocol described in Protocol for HTScan® VEGFR-2 Kinase Assay Kit (Cell Signaling Technology®). The assay was conducted under the following conditions: KDR source: The GST-Kinase fusion protein was produced using a baculovirus expression system with a construct expressing human VEGFR-2 (Val789-Val1356) (GenBank Accession No. NM_002253) with an amino-terminal GST tag, substrate: 1.5 μM Gastrin Precursor Biotinylated Peptide (with Tyr87 as phosphorylation site), vehicle: 1% DMSO, pre-incubation time/temperature: 5 minutes at room temperature, incubation time/temperature: 30 minutes at room temperature, incubation buffer: 60 mM HEPES pH 7.5, 5 mM MgCl2, 5 mM MnCl2, 3 μM Na3VO4, 1.25 mM DTT, 20 μM ATP, and quantitative method: DELFIA® Assay.

[2] = biological target: T2, human c-KIT (Thr544-Val976) (Homo sapiens, UniProt P10721); assay: c-KIT kinase assay (HTScan kit, DELFIA); conditions: for inhibition at 0.1 µM: compound at 0.1 μM, read-out: c-KIT 0.1 μM, % of inhibition relative to control; for inhibition at 1 µM: compound at 1 μM, read-out: c-KIT 1 μM, % of inhibition relative to control
T2 construct: human c-KIT (Thr544-Val976); GST (N); purchased Cell Signaling Technology; host or cells: baculovirus expression system
T2 sequence (P10721 544-976): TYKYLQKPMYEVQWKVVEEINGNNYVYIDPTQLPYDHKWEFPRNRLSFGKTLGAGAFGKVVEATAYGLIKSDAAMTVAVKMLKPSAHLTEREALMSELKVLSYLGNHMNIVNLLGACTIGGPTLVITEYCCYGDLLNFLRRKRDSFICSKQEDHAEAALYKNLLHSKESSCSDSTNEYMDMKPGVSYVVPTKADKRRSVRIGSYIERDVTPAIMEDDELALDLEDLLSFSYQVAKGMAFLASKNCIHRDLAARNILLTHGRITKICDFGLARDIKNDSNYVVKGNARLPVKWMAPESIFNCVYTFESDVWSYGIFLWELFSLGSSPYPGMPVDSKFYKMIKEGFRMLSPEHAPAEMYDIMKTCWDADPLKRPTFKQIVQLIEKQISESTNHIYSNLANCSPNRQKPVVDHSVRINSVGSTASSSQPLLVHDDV
Procedure: as §1
as §2, with “c-KIT” for “KDR”, “c-KIT” for “VEGFR-2”, “GST-c-KIT” for “GST-Kinase”, “c-KIT (Thr544-Val976)” for “VEGFR-2 (Val789-Val1356) (GenBank Accession No. NM_002253)”, “This biotinylated peptide contains the residues surrounding Tyr-996 of KDR,” for “Gastrin Precursor Biotinylated Peptide (with Tyr87 as phosphorylation site),”

[3] = biological target: T3, human FLT-3 (Arg571-Ser993) (Homo sapiens, UniProt P36888); assay: FLT-3 kinase assay (HTScan kit, DELFIA); conditions: for inhibition at 0.1 µM: compound at 0.1 μM, read-out: FLT-3 0.1 μM, % of inhibition relative to control; for inhibition at 1 µM: compound at 1 μM, read-out: FLT-3 1 μM, % of inhibition relative to control
T3 construct: human FLT-3 (Arg571-Ser993); GST (N); purchased Cell Signaling Technology; host or cells: baculovirus expression system
T3 sequence (P36888 571-993): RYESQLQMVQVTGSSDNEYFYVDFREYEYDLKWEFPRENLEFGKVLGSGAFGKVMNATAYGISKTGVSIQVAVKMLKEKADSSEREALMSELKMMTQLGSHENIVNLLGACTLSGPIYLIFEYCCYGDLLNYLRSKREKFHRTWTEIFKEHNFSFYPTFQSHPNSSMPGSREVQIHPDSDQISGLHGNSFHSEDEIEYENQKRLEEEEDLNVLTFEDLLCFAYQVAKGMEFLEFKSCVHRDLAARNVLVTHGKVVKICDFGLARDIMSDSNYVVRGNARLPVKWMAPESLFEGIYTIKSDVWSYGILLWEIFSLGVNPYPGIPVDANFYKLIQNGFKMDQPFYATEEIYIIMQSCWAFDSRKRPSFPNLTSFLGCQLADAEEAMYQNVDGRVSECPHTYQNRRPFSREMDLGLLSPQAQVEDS
Procedure: as §1
as §2, with “FLT-3” for “KDR”, “FLT-3” for “VEGFR-2”, “GST-kinase” for “GST-Kinase”, “FLT-3 (Arg571-Ser993)” for “VEGFR-2 (Val789-Val1356)”, “accession” for “Accession”, “NM_004119)” for “NM_002253)”

Row | inhibition at 0.1 µM [1] | inhibition at 1 µM [1] | inhibition at 0.1 µM [2] | inhibition at 1 µM [2] | IC50 ([2]; read-out: c-KIT kinase inhibition (IC50)) | inhibition at 0.1 µM [3] | inhibition at 1 µM [3] | IC50 ([3]; read-out: FLT-3 kinase inhibition (IC50)) | SMILES
1 | 1.9% | 11.5% | 71% | 71% | 17.8 nM | 56.9% | 85.7% | 4.8 nM | Cc1cc(C=C2C(=O)Nc3ccc(F)cc32)c2ccccc(OCCCN3CCOCC3)c1-2 (mixture of isomers) [Compound 87, 5-Fluoro-3-[3-methyl-4-(3-morpholin-4-yl-propoxy)-azulen-1-ylmethylene]-1,3-dihydro-indol-2-one]
2 |  |  |  |  |  |  | 14.7% |  | O=C1/C(=C\c2ccc3cccccc2-3)c2ccccc2N1C(c1ccccc1)c1ccccc1 [Compound 4, 3-Azulen-1-ylmethylene-1-benzhydryl-1,3-dihydro-indol-2-one]
3 | 54.1% | 83.9% | 66.2% | 66.2% |  | 4.4% | 0.2% |  | Cc1cc(/C=C2/C(=O)N(Cc3ccccc3)c3ccccc32)c2c(C)ccc(C(C)C)cc1-2 [Compound 13, 1-Benzyl-3-(5-isopropyl-3,8-dimethyl-azulen-1-ylmethylene)-1,3-dihydro-indol-2-one]
4 | 17.1% | 69.2% | 31.5% | 31.5% |  |  | 6% |  | Cc1cc(/C=C2/C(=O)N(C(c3ccccc3)c3ccccc3)c3ccccc32)c2c(C)ccc(C(C)C)cc1-2 [Compound 14, 1-Benzhydryl-3-(5-isopropyl-3,8-dimethyl-azulen-1-ylmethylene)-1,3-dihydro-indol-2-one]
5 | 33.8% | 22.1% | 0.6% | 0.6% |  |  | 7.6% |  | O=C1Nc2ccccc2/C1=C\c1ccc2cccccc1-2 [Compound 19, 3-Azulen-1-ylmethylene-1,3-dihydro-indol-2-one]
6 | 39.5% | 28.3% |  |  |  | 18.6% | 43.4% |  | O=C1Nc2ccc(Cl)cc2/C1=C/c1ccc2cccccc1-2 [Compound 23, 3-Azulen-1-ylmethylene-5-chloro-1,3-dihydro-indol-2-one]
7 | 7.7% | 45.7% | 75% | 75% |  | 26.2% | 58.8% |  | O=C1Nc2ccc(F)cc2/C1=C\c1ccc2cccccc1-2 [Compound 25, 3-Azulen-1-ylmethylene-5-fluoro-1,3-dihydro-indol-2-one]
8 |  | 22.4% | 6.8% | 6.8% |  | 1.9% | 24.5% |  | O=C1Nc2cc(Br)ccc2/C1=C\c1ccc2cccccc1-2 [Compound 28, 3-Azulen-1-ylmethylene-6-bromo-1,3-dihydro-indol-2-one]
9 | 18.5% | 48.2% | 46.1% | 46.1% |  |  | 53.3% |  | O=C1Nc2cc(Br)ccc2/C1=C/c1ccc2cccccc1-2 [Compound 29, 3-Azulen-1-ylmethylene-6-bromo-1,3-dihydro-indol-2-one]
10 | 9.5% | 15.6% | 26.9% | 26.9% |  | 7.3% | 34.6% |  | COc1ccc2c(c1)NC(=O)/C2=C/c1ccc2cccccc1-2 [Compound 30, 3-Azulen-1-ylmethylene-6-methoxy-1,3-dihydro-indol-2-one]
11 | 12.6% | 9.1% | 20.2% | 20.2% |  | 14.1% | 44.2% |  | O=C1Nc2ccc(F)cc2/C1=C\c1ccccc2cccc1-2 [Compound 52, 3-Azulen-4-ylmethylene-5-fluoro-1,3-dihydro-indol-2-one]
12 | 16.3% | 20.1% | 39.8% | 39.8% |  | 30.6% | 52.7% |  | O=C1Nc2ccc(F)cc2/C1=C\c1ccc2cccc-2cc1 [Compound 53, 3-Azulen-6-ylmethylene-5-fluoro-1,3-dihydro-indol-2-one]
13 | 17% | 25.7% | 27.5% | 27.5% |  | 33.3% | 52.5% |  | Cc1ccc2c(c1)/C(=C\c1c3cccccc-3nc1N)C(=O)N2 [Compound 54, 3-(2-Amino-cyclohepta[b]pyrrol-3-ylmethylene)-5-methyl-1,3-dihydro-indol-2-one]
14 | 35.4% | 34.2% | 34.8% | 34.8% |  | 12.6% | 53% |  | O=C1Nc2ccc(F)cc2/C1=C\c1cc2cccccc-2c1F [Compound 56, 5-Fluoro-3-(1-fluoro-azulen-2-ylmethylene)-1,3-dihydro-indol-2-one]
15 | 32.9% | 42.5% |  |  |  | 17.2% |  |  | COC(=O)C1C2=CC=CC=C(OC)C2=C(/C=C2\C(=O)Nc3ccc(F)cc32)C1OC (stereo not drawn) [Compound 69, 3-(5-Fluoro-2-oxo-1,2-dihydro-indol-3-ylidenemethyl)-2,4-dimethoxy-1,2-dihydro-azulene-1-carboxylic acid methyl ester]
16 | 40.4% | 52.4% |  |  |  | 33.9% | 32.8% |  | COc1ccc(CN2C(=O)/C(=C/c3cc(C)c4cc(C(C)C)ccc(C)c3-4)c3ccccc32)cc1 [Compound 73, 3-(5-Isopropyl-3,8-dimethyl-azulen-1-ylmethylene)-1-(4-methoxy-benzyl)-1,3-dihydro-indol-2-one]
17 | 5.1% | 70.9% |  |  |  | 45.8% | 69.4% |  | Cc1cc(/C=C2/C(=O)N(Cc3ccc(C#N)cc3)c3ccccc32)c2c(C)ccc(C(C)C)cc1-2 [Compound 74, 4-[3-(5-Isopropyl-3,8-dimethyl-azulen-1-ylmethylene)-2-oxo-2,3-dihydro-indol-1-ylmethyl]-benzonitrile]
18 |  |  | 28.2% | 28.2% |  |  |  |  | COC(=O)c1cc(/C=C2\C(=O)Nc3ccc(F)cc32)c2cccccc1-2 [Compound 76, 3-(5-Fluoro-2-oxo-1,2-dihydro-indol-3-ylidenemethyl)-azulene-1-carboxylic acid methyl ester]
19 |  |  | 23.4% | 23.4% |  |  |  |  | Cc1cc(C=C2C(=O)Nc3ccc(S(=O)(=O)Nc4ccccn4)cc32)c2cccccc1-2 [Compound 77]
